Data: patent publication US20220080015A1, “METHOD OF PREVENTING AND TREATING NEURODEGENERATIVE DISORDERS USING SOPHORA JAPONICA L. EXTRACT AS ACTIVE INGREDIENT” (UNIVERSITY-INDUSTRY COOPERATION GROUP OF KYUNG HEE …, priority 2016, published 2022)

Test system: Alzheimer's disease-induced mouse model (amyloid beta1-42 peptide-infused mouse model)
Experiment: Morris water maze test (memory test)
Type: in vivo, C57BL/6 mouse
Details: Aβ-infused mice + donepezil 1 mg/kg (positive control); platform removed, 60 seconds free swimming; average ± S.E.M.
Protocol: Specifically, the following experiment was carried out by applying a conventional Morris method. First, a mouse was transferred to a behavior observation chamber and stabilized one hour before the initiation of the experiment. The maze dimension includes a diameter of 90 cm and a height of 32.5 cm, and the diameter of a white platform is 5 cm. In the periphery of the underwater maze, spatial cues such as a computer system connected with a video camera and a device for controlling a water temperature were always regularly maintained. Afterward, the maze was filled with water so that the platform is installed 1 cm below the water level, such that a mouse cannot see the platform. The maze was divided into quadrants using four markers, the quadrants were classified as northeast (NE), northwest (NW), southeast (SE), and southwest (SW), and the platform was installed in one quadrant of the maze. […] On the sixth day, the platform was removed from the maze, and then the residence time of a mouse in the quadrant in which the platform was placed was measured. On the final day […] of the Morris water maze test, to perform a memory test, the platform was removed, free swimming was allowed for 60 seconds, and the residence time of a mouse in the quadrant in which the platform was placed was measured in percentage using a Smart program.

Compound: COc1cc2c(cc1OC)C(=O)C(CC1CCN(Cc3ccccc3)CC1)C2 (stereo not shown) [donepezil]
- Residence time in quadrant (%): 59.222±2.918%
